# Test results published in patent US20240016834A1, “ANTIMICROBIAL AGENT COMPOSITION AND MANUFACTURING METHOD AND PRODUCT THEREOF” (priority 2020, published 2024).
# Key:
# [1] = tested on: Staphylococcus aureus ATCC 6538; experiment: In vitro antibacterial power test (KFDA guidelines for external disinfectants), 5 minutes contact; type: cell-based; conditions: inoculum 1.0 × 10^3 CFU/mL
# Excerpt: (§1) The <Table 1> below is based on the official test report of a test that was requested to and performed by the Korea Analytical Testing Research Institute as a test institution. […] In this case, an inhibition rate (%) of the test result is as follows: Inhibition Rate (%)=(Number of Bacteria in Control Group−Number of Bacteria in Sample Group)/Number of Bacteria in Control Group.
# [2] = tested on: Escherichia coli (E. coli) ATCC 8739; experiment: as above; type: cell-based; conditions: inoculum 1.3 × 10^3 CFU/mL
# Excerpt: as §1
# [3] = tested on: Salmonella Typhimurium ATCC 14028; experiment: as above; type: cell-based; conditions: inoculum 1.1 × 10^3 CFU/mL
# Excerpt: as §1
# [4] = tested on: Infectious bronchitis (corona virus); experiment: Administration test to broiler chicken 2 (farm); type: in vivo, broiler chicken (Ross); conditions: antibiotic administered before the Impact treatment
# Method: In the second test, referring to <Table 3> in the below, infectious bronchitis (corona virus) occurred among 24,000 of Ross breeds at the age of 20 days at the broiler chicken consignment farm mentioned above. […] For the test, the product of the present invention was fed at the recommended dosage and was administered in the same way for 3 days.
smiles,measurement,setting,value
"CC1(C)S[C@@H]2[C@H](NC(=O)[C@H](N)c3ccccc3)C(=O)N2[C@H]1C(=O)O [Ampicillin 100, ampicillin]",Inhibition rate (%) of number of viable cells after 5 minutes [Antibacterial power],[1],(94.6%)
same,number of viable cells after 5 minutes,[1]; control group 1.5 × 10^3,8.1 × 10^1 CFU/mL
same,Inhibition rate (%) of number of viable cells after 5 minutes [Antibacterial power],[2],(99.9%)
same,Inhibition rate (%) of number of viable cells after 5 minutes [Antibacterial power],[3],(98.6%)
same,number of viable cells after 5 minutes,[3]; control group 1.6 × 10^3,2.1 × 10^1 CFU/mL
same,respiratory symptoms,[4],symptoms persisted.
